Laboratory results: patent US10206394B2, “Herbicidal compounds” (Syngenta Participations AG, priority 2014, dated 2019)
Where two headings read alike, the source gives them in different places.

Tests used:
Assay in all cases: Glasshouse assay for herbicidal activity (pre- and post-emergence), percentage phytotoxicity
Type in all cases: in vivo
[1] = system: Alopecurus myosuroides (ALOMY); settings: Rate 250 g/ha, 100%=total damage, 0%=no damage; for pest or weed control at 250 g/ha: Alopecurus myosuroides
Description: (§1) Test—Glasshouse Assay for Herbicidal Activity
(§2) Seeds of a variety of monocotyledonous and dicotyledonous test plants are sown in standard soil in pots. The plants are cultivated for one day (for pre-emergence (PRE)) or for about 12 days (for post-emergence (POST)) under controlled conditions in a glasshouse (warm climate species at 24/18° C., cool climate species at 20/16° C., both at day/night; 16 hours light; 65% humidity).
(§3) The test plants are then grown on, in a glasshouse (greenhouse) under controlled conditions (warm climate species at 24/18° C., cool climate species at 20/16° C., both at day/night; 16 hours light; 65% humidity) and are watered twice daily. 15 days after application of the test herbicide (15 DAA) (for post-emergence), and 20 days after application of the test herbicide (20 DAA) (for pre-emergence), the test plants are evaluated visually, and an assessed percentage phytotoxicity score is given for each herbicidal application on each plant species (with 100%=total damage to plant; 0%=no damage to plant).
(§4) The plant species tested are as follows: Alopecurus myosuroides (ALOMY), Avena fatua (AVEFA), Lolium perenne (LOLPE), Echinochloa crus-galli (ECHCG).

[2] = system: Echinochloa crus-galli (ECHCG); settings: Echinochloa crus-galli, Rate 250 g/ha, 100%=total damage, 0%=no damage
Description: as §1, §2, §3, §4

[3] = system: Lolium perenne (LOLPE); settings: Lolium perenne, Rate 250 g/ha, 100%=total damage, 0%=no damage
Description: as §1, §2, §3, §4

[4] = system: Avena fatua (AVEFA); settings: Avena fatua, Rate 250 g/ha, 100%=total damage, 0%=no damage
Description: as §1, §2, §3, §4

[5] = post-emergence, 360 h, post-emergence, assessed visually 15 DAA, read-out: Post-emergence herbicidal activity (percentage phytotoxicity) ALOMY POST
[6] = pre-emergence, 480 h, pre-emergence, assessed visually 20 DAA, read-out: Pre-emergence herbicidal activity (percentage phytotoxicity) ALOMY PRE
[7] = post-emergence, 360 h, post-emergence, assessed visually 15 DAA, read-out: Post-emergence herbicidal activity (percentage phytotoxicity) ECHCG POST
[8] = pre-emergence, 480 h, pre-emergence, assessed visually 20 DAA, read-out: Pre-emergence herbicidal activity (percentage phytotoxicity) ECHCG PRE
[9] = post-emergence, 360 h, post-emergence, assessed visually 15 DAA, read-out: Post-emergence herbicidal activity (percentage phytotoxicity) LOLPE POST
[10] = pre-emergence, 480 h, pre-emergence, assessed visually 20 DAA, read-out: Pre-emergence herbicidal activity (percentage phytotoxicity) LOLPE PRE
[11] = post-emergence, 360 h, post-emergence, assessed visually 15 DAA, read-out: Post-emergence herbicidal activity (percentage phytotoxicity) AVEFA POST
[12] = pre-emergence, 480 h, pre-emergence, assessed visually 20 DAA, read-out: Pre-emergence herbicidal activity (percentage phytotoxicity) AVEFA PRE

| SMILES | pest or weed control at 250 g/ha [1, 5] | pest or weed control at 250 g/ha [1, 6] | pest or weed control at 250 g/ha [2, 7] | pest or weed control at 250 g/ha [2, 8] | pest or weed control at 250 g/ha [3, 9] | pest or weed control at 250 g/ha [3, 10] | pest or weed control at 250 g/ha [4, 11] | pest or weed control at 250 g/ha [4, 12] | Pre-emergence herbicidal activity (percentage phytotoxicity) ALOMY PRE ([1]; pre-emergence, assessed visually 20 DAA) |
| --- | --- | --- | --- | --- | --- | --- | --- | --- | --- |
| Cc1cc(-c2ncc(Cl)cc2F)cc(C)c1C1C(=O)CC(CC(=O)NCc2cccs2)C1=O (stereo not drawn) [Compound A125] | 90% | 70% | 100% | 100% | 100% | 90% | 100% | 80% |  |
| COc1ccccc1CNC(=O)CC1CC(=O)C(c2c(C)cc(-c3ncc(Cl)cc3F)cc2C)C1=O (stereo not drawn) [Compound A126] | 30% | 30% | 100% | 100% | 80% | 80% | 90% | 50% |  |
| Cc1cc(-c2ncc(Cl)cc2F)cc(C)c1C1C(=O)CC(CC(=O)NCc2ccsc2Br)C1=O (stereo not drawn) [Compound A127] | 70% | 0% | 100% | 60% | 90% | 60% | 70% | 20% |  |
| Cc1cc(-c2ncc(Cl)cc2F)cc(C)c1C1C(=O)CC(CC(=O)NCc2cnc(Cl)s2)C1=O (stereo not drawn) [Compound A128] | 100% | 80% | 100% | 100% | 100% | 90% | 100% | 80% |  |
| Cc1cc(-c2ncc(Cl)cc2F)cc(C)c1C1C(=O)CC(CC(=O)NCc2cncs2)C1=O (stereo not drawn) [Compound A129] | 50% |  | 90% |  | 20% |  | 70% |  |  |
| Cc1cc(-c2ncc(Cl)cc2F)cc(C)c1C1C(=O)CC(CC(=O)NCc2ccsc2)C1=O (stereo not drawn) [Compound A130] | 90% | 70% | 100% | 100% | 100% | 90% | 100% | 90% |  |
| Cc1ccsc1CNC(=O)CC1CC(=O)C(c2c(C)cc(-c3ncc(Cl)cc3F)cc2C)C1=O (stereo not drawn) [Compound A131] | 90% | 40% | 100% | 100% | 100% | 70% | 100% | 50% |  |
| Cc1cc(-c2ccc(Cl)cn2)cc(C)c1C1C(=O)CC(CC(=O)NCc2ncccc2Cl)C1=O (stereo not drawn) [Compound A132] | 100% | 90% | 100% | 100% | 100% | 90% | 100% | 90% |  |
| Cc1cc(-c2cnc(Cl)cn2)cc(C)c1C1C(=O)CC(CC(=O)NCc2cccc(C(F)(F)F)c2)C1=O (stereo not drawn) [Compound A133] | 90% |  | 100% | 90% | 80% | 80% | 100% | 90% | 30% |
| Cc1cc(-c2ccc(Cl)cn2)cc(C)c1C1C(=O)CC(CC(=O)NCc2cccc(Cl)c2)C1=O (stereo not drawn) [Compound A134] | 90% | 70% | 100% | 90% | 100% | 80% | 90% | 90% |  |
| Cc1cc(-c2ncc(Cl)cc2Cl)cc(C)c1C1C(=O)CC(CC(=O)NCc2cccc(Cl)c2)C1=O (stereo not drawn) [Compound A135] | 90% | 20% | 100% | 60% | 90% | 70% | 100% | 30% |  |
| Cc1cc(-c2ncc(F)cn2)cc(C)c1C1C(=O)CC(CC(=O)NCc2ccc(C(F)(F)F)nc2)C1=O (stereo not drawn) [Compound A136] | 100% | 80% | 100% | 90% | 90% | 80% | 100% | 90% |  |
| Cc1cc(-n2cc(Cl)cn2)cc(C)c1C1C(=O)CC(CC(=O)NCC(=O)c2ccccc2)C1=O (stereo not drawn) [Compound A137] | 40% | 60% | 90% | 70% | 60% | 70% | 70% | 60% |  |
| Cc1cc(-c2ncc(Cl)cn2)cc(C)c1C1C(=O)CC(CC(=O)NCc2cccs2)C1=O (stereo not drawn) [Compound A139] | 10% | 0% | 20% | 90% | 10% | 0% | 30% | 0% |  |
| Cc1cc(-c2ncc(F)cn2)cc(C)c1C1C(=O)CC(CC(=O)NCc2ncccc2Cl)C1=O (stereo not drawn) [Compound A140] | 100% | 90% | 100% | 100% | 90% | 100% | 100% | 100% |  |
| Cc1cc(-c2ncc(F)cn2)cc(C)c1C1C(=O)CC(CC(=O)NCc2cccs2)C1=O (stereo not drawn) [Compound A141] | 90% | 90% | 100% | 100% | 90% | 100% | 100% | 90% |  |
| Cc1cc(-c2cncnc2)cc(C)c1C1C(=O)CC(CC(=O)NCc2ncccc2Cl)C1=O (stereo not drawn) [Compound A143] |  | 0% | 40% | 10% | 20% | 10% |  | 0% |  |
| CC#Cc1cc(C)c(C2C(=O)CC(CC(=O)NCc3cnc(C)cn3)C2=O)c(C)c1 (stereo not drawn) [Compound A144] | 80% | 80% | 100% | 100% | 90% | 90% | 100% | 90% |  |
| Cc1cnc(CNC(=O)CC2CC(=O)C(c3c(C)cc(-c4cncnc4)cc3C)C2=O)cn1 (stereo not drawn) [Compound A147] | 20% |  | 60% |  | 0% |  | 20% |  |  |
| Cc1cc(-c2cnc(Cl)cn2)cc(C)c1C1C(=O)CC(CC(=O)NCc2cccs2)C1=O (stereo not drawn) [Compound A148] | 70% | 70% | 100% | 100% | 90% | 80% | 100% | 80% |  |
